Source: US7311933B2, “Packaging material for inhibiting microbial growth” (Eastman Kodak Company, priority 2004, dated 2007)

Assay type: physicochemical
Source text: Desferrioxamine B is a commercially available iron chelating drug, desferal®. […] (1980). […] 89, p.

| SMILES | selectivity: difference between the log stability constants |
| --- | --- |
| O=C(NCCCCN(CCCNC(=O)c1cc(S(=O)(=O)O)cc(O)c1O)C(=O)c1cc(S(=O)(=O)O)cc(O)c1O)c1cc(S(=O)(=O)O)cc(O)c1O [3,4-LICAMS] | 26.8 |
| O=C(O)CN(CCN(CC(=O)O)CC(=O)O)CCN(CC(=O)O)CC(=O)O [DTPA, diethylenetriaminepentaacetic acid] | 17.2 |
